Values after ≈ are worked out from the molar mass of the structure shown. Values joined by “and” are separate entries in the source; they are usually repeats but may differ in a detail not shown here. Identical values can stand only once. Like-named read-outs stand apart in the source and are kept apart here. Where a SMILES comes first, the peptide text is derived from it. Bridges are numbered along the chain shown (N, C = ends). [ ]: non-standard residue; d: D form. The star is where a group is joined. X1 = CCCCCCCCCCCC[C@@H](O)[C@@H](O)CC(=O)*; Asp(3S-OH) = N[C@H](C(=O)O)[C@H](O)C(=O)O; Thr(4-Cl) = N[C@H](C(=O)O)[C@H](O)CCl; aThr = C[C@H](O)[C@H](N)C(=O)O; d(hSer) = N[C@H](CCO)C(=O)O; dDab = NCC[C@@H](N)C(=O)O; Dab = NCC[C@H](N)C(=O)O; Dhb = C/C=C(\N)C(=O)O
Key:
Bacillus subtilis = assay: Disk diffusion test; assay type: cell-based; conditions: 1 mg/mL in MeOH, 50 μL per 9 mm hole, 24 h 37 °C
Procedure: (§1) A qualitative screen of different microorganisms was performed using a disk diffusion test. Each microorganism was plated on Mueller Hinton agar plates and 9 mm holes were punched out. The respective compounds were dissolved in the indicated solvent to yield solutions of specified concentrations. 50 μL of the respective solutions were placed in each hole. The plates were incubated for 24 h at 37° C. After incubation, the size of inhibition zones was determined.

Candida albicans = assay: Disk diffusion test; assay type: cell-based; conditions: 1 mg/mL in MeOH, 50 μL per 9 mm hole, 24 h 37 °C
Procedure: as §1

[1] = test system: Enterococcus faecalis (VRE) 1528; assay: Disk diffusion test; assay type: cell-based; conditions: 1 mg/mL in MeOH, 50 μL per 9 mm hole, 24 h 37 °C
Procedure: as §1

Escherichia coli = assay: Disk diffusion test; assay type: cell-based; conditions: 1 mg/mL in MeOH, 50 μL per 9 mm hole, 24 h 37 °C
Procedure: as §1

Mycobacterium vaccae = assay: Disk diffusion test; assay type: cell-based; conditions: 1 mg/mL in MeOH, 50 μL per 9 mm hole, 24 h 37 °C
Procedure: as §1

Penicillium notatum = assay: Disk diffusion test; assay type: cell-based; conditions: 1 mg/mL in MeOH, 50 μL per 9 mm hole, 24 h 37 °C; methanol alone 10 mm
Procedure: as §1

[2] = test system: Pseudomonas aeruginosa K799/61; assay: Disk diffusion test; assay type: cell-based; conditions: 1 mg/mL in MeOH, 50 μL per 9 mm hole, 24 h 37 °C
Procedure: as §1

[3] = test system: Pseudomonas aeruginosa SG 137; assay: Disk diffusion test; assay type: cell-based; conditions: 1 mg/mL in MeOH, 50 μL per 9 mm hole, 24 h 37 °C
Procedure: as §1

[4] = test system: Sporobolomyces salmonicolor; assay: Disk diffusion test; assay type: cell-based; conditions: 1 mg/mL in MeOH, 50 μL per 9 mm hole, 24 h 37 °C; methanol alone 10 mm
Procedure: as §1

[5] = test system: Staphylococcus aureus (MRSA) 134/94; assay: Disk diffusion test; assay type: cell-based; conditions: 1 mg/mL in MeOH, 50 μL per 9 mm hole, 24 h 37 °C
Procedure: as §1

[6] = test system: Staphylococcus aureus SG 511; assay: Disk diffusion test; assay type: cell-based; conditions: 1 mg/mL in MeOH, 50 μL per 9 mm hole, 24 h 37 °C
Procedure: as §1

[7] = test system: Aspergillus fumigatus ATCC 204305; assay: Broth dilution method (EUCAST); assay type: cell-based; conditions: Aspergillus fumigatus
Procedure: (§2) The activity assay was performed using the broth dilution method according to the EUCAST DEFINITIVE DOCUMENT E.DEF 9.3.2. B. cinerea and A. solani were incubated according to the Methods for dilution antimicrobial susceptibility tests for bacteria that grow aerobically by the NCCLS. Keanumycin A was dissolved in DMSO.

Candida auris 2021-353 = assay: Broth dilution method (EUCAST); assay type: cell-based
Procedure: as §2

[8] = test system: Candida glabrata 2021-359; assay: Broth dilution method (EUCAST); assay type: cell-based
Procedure: as §2

[9] = test system: Candida parapsilosis ATCC 22019; assay: Broth dilution method (EUCAST); assay type: cell-based; conditions: Lodderomyces parapsilosis
Procedure: as §2

[10] = test system: Candida tropicalis 2021-360; assay: Broth dilution method (EUCAST); assay type: cell-based
Procedure: as §2

[11] = test system: Fusarium proliferatum 2021-361; assay: Broth dilution method (EUCAST); assay type: cell-based
Procedure: as §2

[12] = test system: Rhizopus arrhizus 2021-366; assay: Broth dilution method (EUCAST); assay type: cell-based
Procedure: as §2

[13] = test system: Scedosporium apiospermum 2016-079; assay: Broth dilution method (EUCAST); assay type: cell-based
Procedure: as §2

[14] = test system: Alternaria solani SF003858; assay: Broth dilution method (NCCLS); assay type: cell-based; conditions: 22 °C
Procedure: as §2

[15] = test system: Botrytis cinerea SF011406; assay: Broth dilution method (NCCLS); assay type: cell-based
Procedure: as §2

[16] = test system: C. albicans strain SC5314; assay: MIC against C. albicans SC5314; assay type: cell-based; conditions: Candida albicans
[17] = test system: human vaginal epithelial cells A431; assay: Toxicity to uninfected vaginal epithelial cells (LDH); assay type: cell-based; conditions: A431 cells without infection, 24 hours
Procedure: FIGS. 7A-7B show in 7A) Keanumycin A protected human vaginal epithelial cells in C. albicans infection model. Micrograph depicts % damage to human vaginal epithelial cells A431 (y-axis) in the presence of keanumycin A at varied concentrations (x-axis) as estimated by LDH cytotoxicity assay after 24 hours of infection or treatment. LDH absorbance was normalized to C. albicans infected and uninfected controls. Keanumycin A protected vaginal cells from damage by C. albicans at a narrow concentration range from 4-8 μg/ml (black line). Keanumycin A was toxic to vaginal cells at concentrations above 8 μg/ml (grey line) (N=3). […] Vaginal epithelial cells were lysed after 24-hour infection, and fungal viability was measured by XTT absorbance, normalized to C. albicans infected and uninfected controls (N=2) […]
Overnight culture of C. albicans strain SC5314 grown in YPD at 30° C., shaking at 180 RPM was harvested, washed twice with PBS. […] Epithelial damage was measured 24 hours after infection by collecting and diluting the supernatant 1:10 in PBS and measuring the lactate dehydrogenase (LDH) activity with the Roche Cytotoxicity Detection Kit (LDH) as per manufacturer's instructions. The absorbance (490 nm) values are represented as percentage damage, which is normalized to the low control, where medium only is 0% damage, and high control, where C. albicans infection is 100% damage. […]

C. albicans = assay: Genome-wide microarray, transcription rate change; assay type: cell-based, Candida albicans; conditions: sublethal concentration, 1-h exposure, vs nontreated

C/C=C1\NC(=O)[C@H]([C@H](C)O)NC(=O)[C@H](CCN)NC(=O)[C@@H](CCO)NC(=O)CNC(=O)[C@@H](CCN)NC(=O)[C@@H](NC(=O)C[C@H](O)[C@H](O)CCCCCCCCCCCC)COC(=O)[C@H]([C@H](O)CCl)NC(=O)[C@H]([C@H](O)C(=O)O)NC1=O [Keanumycin A, keanumycin A] (X1-S[dDab]G[d(hSer)][Dab][aThr][Dhb][Asp(3S-OH)][Thr(4-Cl)]; ester 1-C)
Inhibition area diameter (Bacillus subtilis): 11 mm
Inhibition area diameter (Candida albicans): 30 mm
Inhibition area diameter [1]: 12 mm
Inhibition area diameter (Escherichia coli): 0 mm
Inhibition area diameter (Mycobacterium vaccae): 13 mm
Inhibition area diameter (Penicillium notatum): 26 mm
Inhibition area diameter [2]: 0 mm
Inhibition area diameter [3]: 0 mm
Inhibition area diameter [4]: 28 mm
Inhibition area diameter [5]: 0 mm
Inhibition area diameter [6]: 10 mm
MIC ([7]; ATCC204305): 3.42 µM and 4 µg/mL
MIC ([7]; ATCC204305, read-out: Result of the broth dilution method assay (MIC)): 4 µg/mL (≈ 3.43 µM)
MIC (Candida auris 2021-353; Candidozyma auris, 2021353): 0.86 µM and 1 µg/mL
MIC (Candida auris 2021-353; Candidozyma auris, 2021353, read-out: Result of the broth dilution method assay (MIC)): 0.5 to 1 µg/mL (≈ 0.429 to 0.857 µM)
MIC ([8]; Nakaseomyces glabratus, 2021359): 0.86 µM and 1 µg/mL
MIC ([8]; Nakaseomyces glabratus, 2021359, read-out: Result of the broth dilution method assay (MIC)): 1 µg/mL (≈ 0.857 µM)
MIC ([9]; ATCC22019): 0.86 µM and 1 µg/mL
MIC ([9]; ATCC22019, read-out: Result of the broth dilution method assay (MIC)): 1 µg/mL (≈ 0.857 µM)
MIC ([10]; Candida tropicalis, 2021360): 0.86 µM and 1 µg/mL
MIC ([10]; Candida tropicalis, 2021360, read-out: Result of the broth dilution method assay (MIC)): 1 µg/mL (≈ 0.857 µM)
MIC [11]: > 6.85 µM and > 8 µg/mL
MIC ([11]; Fusarium proliferatum, 2021361, read-out: Result of the broth dilution method assay (MIC)): > 8 µg/mL
MIC ([12]; Rhizopus arrhizus, 2021366): > 6.85 µM and > 8 µg/mL
MIC ([12]; Rhizopus arrhizus, 2021366, read-out: Result of the broth dilution method assay (MIC)): > 8 µg/mL
MIC ([13]; Scedosporium apiospermum, 2016079): 6.85 µM and 8 µg/mL
MIC ([13]; Scedosporium apiospermum, 2016079, read-out: Result of the broth dilution method assay (MIC)): 8 µg/mL (≈ 6.86 µM)
MIC [14]: 1.07 µM and 1.25 µg/mL
MIC ([15]; Botrytis cinerea SF011406, NCCLS, 22 °C): 0.08 µg/mL
MIC ([15]; Botrytis cinerea, SF011406, Botrytis cinerea, NCCLS, 22 °C, read-out: MIC): 0.07 µM
MIC ([15]; Botrytis cinerea, SF011406, Botrytis cinerea, read-out: MIC): 0.069 µM
MIC [16]: 1.72 µM (≈ 2.01 µg/mL)
concentrations toxic to vaginal cells [17]: above 8 μg/ml
transcription rate change, ERG3 (C. albicans; ergosterol biosynthesis): −1.83 log2-fold change
transcription rate change, IPT1 (C. albicans; sphingolipid biosynthesis): −0.44 log2-fold change
transcription rate change, ORM1 (C. albicans; sphingolipid biosynthesis): 0.55 log2-fold change
transcription rate change, SCS7/FAH1 (C. albicans; sphingolipid biosynthesis): −1.10 log2-fold change
transcription rate change, SYR2/SUR2 (C. albicans; sphingolipid biosynthesis): 0.66 log2-fold change
